Results from patent publication US8741875B2, “Compounds as receptor modulators with therapeutic utility” (Allergan, Inc., priority 2009, dated 2014).

Target: T1, human S1P1 receptor (Homo sapiens, UniProt P21453)
T1 construct: expressed in transfected cells; membranes used
Assay: GTP γ35S binding assay for S1P1 activity
Type: biochemical
Settings: membranes, 30 min at 25° C., read-out: S1P1 EC50 (Activity potency: S1P1 receptor from GTP γ35S)
Method: Compounds were tested for S1P1 activity using the GTP γ^35S binding assay. These compounds may be assessed for their ability to activate or block activation of the human S1P1 receptor in cells stably expressing the S1P1 receptor.
GTP γ^35S binding was measured in the medium containing (mM) HEPES 25, pH 7.4, MgCl2 10, NaCl 100, dithitothreitol 0.5, digitonin 0.003%, 0.2 nM GTP γ^35S, and 5 μg membrane protein in a volume of 150 μl. Test compounds were included in the concentration range from 0.08 to 5,000 nM unless indicated otherwise. Membranes were incubated with 100 μM 5′-adenylylimmidodiphosphate for 30 min, and subsequently with 10 μM GDP for 10 min on ice. Drug solutions and membrane were mixed, and then reactions were initiated by adding GTP γ^35S and continued for 30 min at 25° C. Reaction mixtures were filtered over Whatman GF/B filters under vacuum, and washed three times with 3 mL of ice-cold buffer (HEPES 25, pH7.4, MgCl2 10 and NaCl 100). Filters were dried and mixed with scintillant, and counted for ^35S activity using a β-counter. Agonist-induced GTP γ^35S binding was obtained by subtracting that in the absence of agonist. Binding data were analyzed using a non-linear regression method. In case of antagonist assay, the reaction mixture contained 10 nM S1P in the presence of test antagonist at concentrations ranging from 0.08 to 5000 nM.

T1 sequence (P21453 whole entry): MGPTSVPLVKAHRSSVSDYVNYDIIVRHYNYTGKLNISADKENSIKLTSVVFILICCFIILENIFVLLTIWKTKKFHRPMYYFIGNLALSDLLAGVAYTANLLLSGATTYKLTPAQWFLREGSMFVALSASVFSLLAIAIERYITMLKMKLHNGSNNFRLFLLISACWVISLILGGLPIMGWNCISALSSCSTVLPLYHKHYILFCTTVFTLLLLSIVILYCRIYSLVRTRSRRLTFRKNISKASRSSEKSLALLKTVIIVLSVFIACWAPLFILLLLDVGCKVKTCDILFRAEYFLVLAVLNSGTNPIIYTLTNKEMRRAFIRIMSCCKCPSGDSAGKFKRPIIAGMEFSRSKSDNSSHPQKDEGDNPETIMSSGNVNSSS

| EC50 [nM] | SMILES |
| --- | --- |
| 34.9 | Cc1cccc(CCCCCOc2ccc(CNCCCP(=O)(O)O)cc2-c2ccco2)c1 [Compound 40, (3-{[3-(2-furyl)-4-{[5-(3-methylphenyl)pentyl]oxy}benzyl]amino}propyl)phosphonic acid] |
| 16.4 | CC(NCCCP(=O)(O)O)c1ccc(OCCCCCc2ccccc2)c(-c2cccs2)c1 (stereo not drawn) [Compound 42, {3-[(1-{4-[(5-phenylpentyl)oxy]-3-(2-thienyl)phenyl}ethyl)amino]propyl}phosphonic acid] |
| 6.5 | COc1ccc(CCCCCOc2ccc(CNCCCP(=O)(O)O)cc2-c2cccs2)cc1Cl [Compound 32, (3-{[4-{[5-(3-chloro-4-methoxyphenyl)pentyl]oxy}-3-(2-thienyl)benzyl]amino}propyl)phosphonic acid] |
| 1 | O=P(O)(O)CCCNCc1ccc(OCCCCCc2ccccc2F)c(-c2ccco2)c1 [Compound 49, (3-{[4-{[5-(2-fluorophenyl)pentyl]oxy}-3-(2-furyl)benzyl]amino}propyl)phosphonic acid] |
| 32.8 | O=P(O)(O)CCCNCc1ccc(OCCCCCc2cccc(Cl)c2)c(-c2ccco2)c1 [Compound 39, (3-{[4-{[5-(3-chlorophenyl)pentyl]oxy}-3-(2-furyl)benzyl]amino}propyl)phosphonic acid] |
| 0.9 | O=P(O)(O)CCCNCc1ccc(OCCCCCc2ccccc2)c(-c2ccco2)c1 [Compound 1, [3-({3-(2-furyl)-4-[(5-phenylpentyl)oxy]benzyl}amino)propyl]phosphonic acid] |
| 2 | O=P(O)(O)CCCNCc1ccc(OCCCCCc2ccccc2)c(-c2ccc(F)s2)c1 [Compound 18] |
| 2 | O=P(O)(O)CCCNCc1ccc(OCCCCCc2ccccc2)c(-c2nccs2)c1 [Compound 3, [3-({4-[(5-phenylpentyl)oxy]-3-(1,3-thiazol-2-yl)benzyl}amino)propyl]phosphonic acid] |
| 1.7 | [2H]C([2H])(CCCCc1ccccc1)Oc1ccc(CNCCCP(=O)(O)O)cc1-c1ccco1 [Compound 45, [3-({3-(2-furyl)-4-[(5-phenylpentyl)oxy]benzyl}amino)propyl]phosphonic acid-d_2—] |
| < 25 | O=P(O)(O)CCCNCc1ccc(OCCCCCc2ccccc2F)c(-c2ccoc2)c1 [Compound 50, (3-{[4-{[5-(2-fluorophenyl)pentyl]oxy}-3-(3-furyl)benzyl]amino}propyl)phosphonic acid] |
| 1 | O=P(O)(O)CCCNCc1ccc(OCCCCCc2ccccc2)c(-c2ccoc2)n1 [Compound 14, {3-[({6-(3-furyl)-5-[(5-phenylpentyl)oxy]pyridin-2-yl}methyl)amino]propyl}phosphonic acid] |
| 12.5 | COc1cccc(CCCCCOc2ccc(CNCCCP(=O)(O)O)cc2-c2ccoc2)c1 [Compound 34, (3-{[3-(3-furyl)-4-{[5-(3-methoxyphenyl)pentyl]oxy}benzyl]amino}propyl)phosphonic acid] |
| 10.1 | O=S(=O)(O)CCCNCc1ccc(OCCCCCc2ccccc2)c(-c2cccs2)c1 [Compound 10, 3-({4-[(5-phenylpentyl)oxy]-3-(2-thienyl)benzyl}amino)propane-1-sulfonic acid] |
| 19.7 | O=P(O)(O)CCCNCc1ccc(OCCCCCc2ccc(F)cc2)c(-c2cccs2)c1 [Compound 21, (3-{[4-{[5-(4-fluorophenyl)pentyl]oxy}-3-(2-thienyl)benzyl]amino}propyl)phosphonic acid] |
| 1120 | COc1cccc(CCCCCOc2ccc(CNCCCP(=O)(O)O)cc2-c2cccs2)c1 [Compound 19, (3-{[4-{[5-(3-methoxyphenyl)pentyl]oxy}-3-(2-thienyl)benzyl]amino}propyl)phosphonic acid] |
| 17.4 | O=P(O)(O)CCCNCc1ccc(NCCCCCc2ccccc2)c(-c2nccs2)c1 [Compound 48, [3-({4-[(5-phenylpentyl)amino]-3-(1,3-thiazol-2-yl)benzyl}amino)propyl]phosphonic acid] |
| 52.6 | O=[PH](O)CCCNCc1ccc(OCCCCCc2ccccc2)c(-c2cccs2)c1 [Compound 37, [3-({4-[(5-phenylpentyl)oxy]-3-(2-thienyl)benzyl}amino)propyl]phosphinic acid] |
| 53.6 | O=P(O)(O)C(F)(F)CCNCc1ccc(OCCCCCc2ccccc2)c(-c2ccc(F)o2)c1 [Compound 41, [1,1-difluoro-3-({3-(5-fluoro-2-furyl)-4-[(5-phenylpentyl)oxy]benzyl}amino)propyl]phosphonic acid] |
| 7 | COc1ccc(CCCCCOc2ccc(CNCCCP(=O)(O)O)cc2-c2ccco2)cc1F [Compound 27, (3-{[4-{[5-(3-fluoro-4-methoxyphenyl)pentyl]oxy}-3-(2-furyl)benzyl]amino}propyl)phosphonic acid] |
| 14.9 | CC(C)Cc1ccc(CCCOc2ccc(CNCCCP(=O)(O)O)cc2-c2cccs2)cc1 [Compound 7, [3-({4-[3-(4-isobutylphenyl)propoxy]-3-(2-thienyl)benzyl}amino)propyl]phosphonic acid] |
| 3.4 | O=P(O)(O)CCCNCc1ccc(OCCCCCc2ccccc2)c(C2=CCCC2)c1 [Compound 8, [3-({3-cyclopent-1-en-1-yl-4-[(5-phenylpentyl)oxy]benzyl}amino)propyl]phosphonic acid] |
| 54.1 | O=P(O)(O)CCCNCc1ccc(OCCCCCc2ccccc2)c(-c2cocn2)c1 [Compound 35, [3-({3-(1,3-oxazol-4-yl)-4-[(5-phenylpentyl)oxy]benzyl}amino)propyl]phosphonic acid] |
| 294 | CCCCCCCCCCOc1ccc(CNCCCP(=O)(O)O)cc1-c1cccs1 [Compound 17, (3-{[4-(decyloxy)-3-(2-thienyl)benzyl]amino}propyl)phosphonic acid] |
| 11.9 | O=P(O)(O)CCCNCc1ccc(OCCCCCc2ccccc2)c(-c2ncco2)c1 [Compound 2, [3-({3-(1,3-oxazol-2-yl)-4-[(5-phenylpentyl)oxy]benzyl}amino)propyl]phosphonic acid] |
| 1.9 | COc1ccc(CCCCCOc2ccc(CNCCCP(=O)(O)O)cc2-c2cccs2)cc1F [Compound 28, (3-{[4-{[5-(3-fluoro-4-methoxyphenyl)pentyl]oxy}-3-(2-thienyl)benzyl]amino}propyl)phosphonic acid] |
| 65.7 | O=P(O)(O)CCCNCc1ccc(OCCCCCc2cccc(C(F)(F)F)c2)c(-c2ccco2)c1 [Compound 22, (3-{[3-(2-furyl)-4-({5-[3-(trifluoromethyl)phenyl]pentyl}oxy)benzyl]amino}propyl)phosphonic acid] |
| 5.7 | O=P(O)(O)CCCNCc1ccc(OCCCCCc2ccc(Cl)cc2)c(-c2ccco2)c1 [Compound 29, (3-{[4-{[5-(4-chlorophenyl)pentyl]oxy}-3-(2-furyl)benzyl]amino}propyl)phosphonic acid] |
| 18.5 | CC(CCNCc1ccc(OCCCCCc2ccccc2)c(-c2ccco2)c1)P(=O)(O)O (stereo not drawn) [Compound 36, [3-({3-(2-furyl)-4-[(5-phenylpentyl)oxy]benzyl}amino)-1-methylpropyl]phosphonic acid] |

| SMILES | EC50 [nM] |
| --- | --- |
| O=P(O)(O)CCCNCc1ccc(OCCCCc2ccc(F)cc2)c(-c2cccs2)c1 [Compound 25, [3-({4-[4-(4-fluorophenyl)butoxy]-3-(2-thienyl)benzyl}amino)propyl]phosphonic acid] | 67.5 |
| O=P(O)(O)OCCNCc1ccc(OCCCCCc2ccccc2)c(-c2cccs2)c1 [Compound 9, 2-({4-[(5-phenylpentyl)oxy]-3-(2-thienyl)benzyl}amino)ethyl dihydrogen phosphate] | 1.5 |
